In ChEMBL document CHEMBL1201862, “PubChem BioAssay data set” (2004):
The source made the active and inactive calls.

Tests used:
[1] = Fluorescence polarization-based biochemical high throughput dose response assay for activators of the Protein Kinase A-R2B (PKA-R2B) complex. [Related pubchem assays (depositor defined):AID504700, AID504704, AID504796, AID504797]
[2] = Fluorescence polarization-based biochemical high throughput dose response assay for activators of the Protein Kinase A-R1A (PKA-R1A) complex. [Related pubchem assays (depositor defined):AID504704, AID504707, AID504799, AID504800]
[3] = non-specific 3'UTR reporter inhibition in Clone20-Shn3RL – cell-based, Renilla luciferase, cherry-picked, counter-screen for Shn3 inhibitor project, dose response (AID 624133); type: functional
[4] = alpha-synuclein stem-loop translation blockers – luminescence, H4 neuroglioblastoma cells, dose confirmation, confirmation (AID 2454); type: functional, cell-based;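 note: H4 neuroglioblastoma cells carrying an alpha-synuclein 5'UTR luciferase reporter; potency for inhibition of the luciferase signal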
[5] = alpha-synuclein stem-loop luciferase translation blockers – H4 neuroglioma cells, luminescence, confirmation (AID 1988); type: functional, cell-based
[6] = luciferase reporter signal reduction – luminescence, H4-C neuroglioblastoma cells, dose response (AID 2458); type: functional, cell-based;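 note: H4 neuroglioblastoma cells stably carrying a luciferase reporter gene fusion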
[7] = cells; type: functional, cell-based
[8] = reduction of Shn3 3'UTR-driven luciferase in osteoblasts – cell-based, Clone20 osteoblasts, firefly luciferase, cherry-picked, dose response (AID 624132); type: functional;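 note: firefly luciferase luminescence from reporter carrying the Shn3 3'UTR in osteoblasts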
[9] = target: Luciferin 4-monooxygenase (Photuris pensylvanica, UniProt Q27757); assay: inhibition of Cell Titer Glo luciferase signal – biochemical, luminescence, cherry-picks, counter-screen for HSF-1 reporter inhibitor project, dose response (AID 588847)
[10] = Luminescence Cell-Based Dose Response HTS to Identify Inhibitors of 5'UTR Stem-Loop Driven Prion Protein mRNA Translation in H4 Neuroglioblastoma Cells. [Related pubchem assays: 1827 (Project Summary), 1813 (Primary HTS)]; type: functional
[11] = luciferase reporter signal suppression in cells – H4 neuroglioma cells, luminescence, dose response (AID 1990); type: functional, cell-based
[12] = target: T1, Heat shock factor protein 1 (Mus musculus, UniProt P38532); assay: decrease of HSF1-responsive luciferase luminescence – cell-based, NIH3T3, dose retest, confirmation (AID 2382); type: functional;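 note: NIH3T3 fibroblasts with HSF1-driven luciferase reporter stressed by proteasome inhibitor MG132; luminescence from HSF1-driven luciferase expression after 8 hours of MG132 stress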
T1 sequence (P38532 whole entry): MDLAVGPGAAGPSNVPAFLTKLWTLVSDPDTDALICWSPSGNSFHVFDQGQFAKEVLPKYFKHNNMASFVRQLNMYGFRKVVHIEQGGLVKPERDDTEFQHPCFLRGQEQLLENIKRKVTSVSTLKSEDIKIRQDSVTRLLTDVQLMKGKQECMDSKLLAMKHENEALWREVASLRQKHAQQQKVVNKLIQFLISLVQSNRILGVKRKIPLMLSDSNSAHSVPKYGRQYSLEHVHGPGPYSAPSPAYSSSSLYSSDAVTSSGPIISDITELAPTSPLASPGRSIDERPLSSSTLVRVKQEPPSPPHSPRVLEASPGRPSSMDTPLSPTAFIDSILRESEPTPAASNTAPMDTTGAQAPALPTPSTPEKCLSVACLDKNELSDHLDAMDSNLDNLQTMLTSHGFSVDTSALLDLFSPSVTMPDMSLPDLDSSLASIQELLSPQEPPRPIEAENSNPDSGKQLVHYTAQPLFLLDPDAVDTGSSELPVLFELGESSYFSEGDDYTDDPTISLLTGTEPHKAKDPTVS

[13] = loss of viability in HepG2 cells – cell-based, CellTiter-Glo, cherry-picked, cytotoxicity control for Shn3 inhibitor project, dose response (AID 624134); type: functional
[14] = target: T2, Streptokinase A (Streptococcus pyogenes serotype M1, UniProt P10520); assay: viability-normalized secreted streptokinase activity reduction – plasminogen activation absorbance, OD405, dose response (AID 1914); type: functional, Streptococcus pyogenes M1 GAS;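 note: secreted streptokinase activity via plasminogen activation per viability signal from cell pellet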
T2 sequence (P10520 whole entry): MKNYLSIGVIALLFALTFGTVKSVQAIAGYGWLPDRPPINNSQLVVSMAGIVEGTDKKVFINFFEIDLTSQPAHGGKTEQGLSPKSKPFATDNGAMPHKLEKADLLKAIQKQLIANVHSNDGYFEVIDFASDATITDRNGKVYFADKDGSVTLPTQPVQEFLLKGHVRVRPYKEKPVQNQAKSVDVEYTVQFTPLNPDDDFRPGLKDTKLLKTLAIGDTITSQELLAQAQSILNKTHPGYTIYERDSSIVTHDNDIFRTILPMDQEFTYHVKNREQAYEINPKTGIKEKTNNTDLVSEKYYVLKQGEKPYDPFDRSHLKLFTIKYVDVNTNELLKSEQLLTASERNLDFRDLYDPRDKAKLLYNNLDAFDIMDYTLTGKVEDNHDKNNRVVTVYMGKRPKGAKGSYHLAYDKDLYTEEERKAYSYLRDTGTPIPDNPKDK

[15] = system: Streptococcus sp. 'group A'; assay: Streptococcus pyogenes SK(-)GAS viability under kanamycin – luminescence, BacTiterGlo, confirmation, counter-screen for streptokinase expression inhibitor project, dose response (AID 1900); type: functional, organism-based
[16] = target: Beta-arrestin-1 (Homo sapiens, UniProt P49407); assay: beta-arrestin/AP2 interaction blockers, potency – biochemical, cherry pick 1, beta2-adaptin appendage, flow cytometry, dose response (AID 588783); type: functional
[17] = system: Streptococcus; assay: GAS UMAA2166 growth inhibition – luminescence, BacTiterGlo, counter-screen for streptokinase expression inhibitor project, dose response (AID 1915); type: functional, organism-based;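 note: potency for reduction of bacterial viability or growth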
[18] = target: Glycogen synthase kinase-3 beta (Homo sapiens, UniProt P49841); assay: Inhibition of Human GSK-3 beta Activity Measured in Biochemical System Using Microfluidics - 2063-05_Inhibitor_Dose_DryPowder_Activity. [Related pubchem assays (depositor defined):AID2709]
[19] = target: Glycogen synthase kinase-3 alpha (Homo sapiens, UniProt P49840); assay: Inhibition of Human GSK-3 alpha Activity Measured in Biochemical System Using Microfluidics - 2063-06_Inhibitor_Dose_DryPowder_Activity. [Related pubchem assays (depositor defined):AID2709]
[20] = target: Voltage-gated inwardly rectifying potassium channel KCNH2 (Homo sapiens, UniProt Q12809); details: Potency;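 note: confirmatory quantitative high-throughput screen measuring inhibition of hERG channel activity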
[21] = target: Bcl-2-like protein 1 (Homo sapiens, UniProt Q07817); assay: blockers of BCLXL peptide binding – biochemical, fluorescence polarization, 1536-well, selectivity assay for MCL1 inhibitor project, dose response (AID 2218)
[22] = target: T3, Small ubiquitin-related modifier 1 (Homo sapiens, UniProt P63165); assay: SUMO1 protein interaction blockers, potency – biochemical, fluorescence polarization, uHTS hits, dose response (AID 624382); type: functional; details: read-out: IC50_Mean
[23] = target: T4, Carboxy-terminal domain RNA polymerase II polypeptide A small phosphatase 1 (Homo sapiens, UniProt Q9GZU7); assay: CTDSP1 inhibitors, concentration-response, biochemical, absorbance readout, ultra-high-throughput screen actives (AID 540297); type: functional
T4 sequence (Q9GZU7 whole entry): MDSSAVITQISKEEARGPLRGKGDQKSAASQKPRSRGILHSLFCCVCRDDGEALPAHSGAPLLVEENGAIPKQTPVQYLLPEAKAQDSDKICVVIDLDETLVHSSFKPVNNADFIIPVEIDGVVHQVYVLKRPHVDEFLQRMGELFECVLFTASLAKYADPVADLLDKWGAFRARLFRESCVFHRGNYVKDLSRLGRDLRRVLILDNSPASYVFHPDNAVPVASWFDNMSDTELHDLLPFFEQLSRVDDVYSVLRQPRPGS

[24] = target: T5, Apoptotic protease-activating factor 1 (Homo sapiens, UniProt O14727); assay: SAR analysis of small molecule Activators of Apaf-1 in a Fluorescent assay.; type: functional; details: read-out: EC50_Mean;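 note: caspase-3 cleavage of fluorogenic Rh110 DEVD substrate downstream of apoptosome activation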
T5 sequence (O14727 whole entry): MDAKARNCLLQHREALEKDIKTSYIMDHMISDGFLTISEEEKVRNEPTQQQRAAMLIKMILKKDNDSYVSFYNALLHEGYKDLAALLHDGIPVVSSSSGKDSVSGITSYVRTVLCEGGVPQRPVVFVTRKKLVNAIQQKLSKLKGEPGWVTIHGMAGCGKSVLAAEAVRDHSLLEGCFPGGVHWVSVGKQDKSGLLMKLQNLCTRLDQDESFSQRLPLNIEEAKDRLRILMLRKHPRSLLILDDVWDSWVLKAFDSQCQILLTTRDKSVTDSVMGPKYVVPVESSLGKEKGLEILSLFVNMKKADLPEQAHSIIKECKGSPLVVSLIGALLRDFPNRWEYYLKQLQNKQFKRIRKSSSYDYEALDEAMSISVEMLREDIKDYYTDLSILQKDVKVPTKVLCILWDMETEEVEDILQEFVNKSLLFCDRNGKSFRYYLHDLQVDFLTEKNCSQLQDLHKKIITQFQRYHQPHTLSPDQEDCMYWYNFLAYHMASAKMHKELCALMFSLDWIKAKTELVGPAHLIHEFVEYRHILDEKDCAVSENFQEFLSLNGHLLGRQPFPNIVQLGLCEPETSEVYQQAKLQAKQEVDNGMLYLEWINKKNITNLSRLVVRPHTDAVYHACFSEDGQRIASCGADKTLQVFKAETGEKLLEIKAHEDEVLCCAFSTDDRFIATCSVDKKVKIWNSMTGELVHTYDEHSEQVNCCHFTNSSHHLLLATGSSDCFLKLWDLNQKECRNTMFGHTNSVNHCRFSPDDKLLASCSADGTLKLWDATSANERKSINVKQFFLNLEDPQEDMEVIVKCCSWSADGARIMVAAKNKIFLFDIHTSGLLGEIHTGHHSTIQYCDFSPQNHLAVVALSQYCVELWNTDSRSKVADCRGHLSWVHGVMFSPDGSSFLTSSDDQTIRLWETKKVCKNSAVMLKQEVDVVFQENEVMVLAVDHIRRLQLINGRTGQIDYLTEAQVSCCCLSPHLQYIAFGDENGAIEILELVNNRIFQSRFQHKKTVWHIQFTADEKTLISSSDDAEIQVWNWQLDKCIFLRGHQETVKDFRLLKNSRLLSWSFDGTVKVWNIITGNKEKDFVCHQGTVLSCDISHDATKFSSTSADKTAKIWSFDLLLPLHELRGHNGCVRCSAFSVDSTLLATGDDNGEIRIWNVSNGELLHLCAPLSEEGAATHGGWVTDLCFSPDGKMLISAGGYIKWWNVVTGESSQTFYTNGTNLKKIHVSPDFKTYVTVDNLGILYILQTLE

[25] = target: Beta-adrenergic receptor kinase 1 (Homo sapiens, UniProt P25098); assay: blockers of aptamer binding to GRK2 – biochemical, flow cytometry beads, FAM-aptamer, powder set 1, dose response (AID 588720)
[26] = target: T3, Small ubiquitin-related modifier 1; assay: SUMO1 protein-protein binding blockers, potency – biochemical, FRET, dose response (AID 624383); type: functional; details: read-out: IC50_Mean
[27] = target: 26S proteasome non-ATPase regulatory subunit 14 (Homo sapiens, UniProt O00487); assay: inhibition of proteasome subunit RPN11 – biochemical, fluorescence polarization, uHTS hits, confirmation (AID 602368); type: functional
[28] = target: Induced myeloid leukemia cell differentiation protein Mcl-1 (Homo sapiens, UniProt Q07820); assay: blockers of MCL1 binding to BIM peptide – biochemical, fluorescence polarization, BIM-BH3 peptide, 1536-well, dose response (AID 2217)
[29] = target: 72 kDa type IV collagenase (Homo sapiens, UniProt P08253); assay: Dose Response validation of uHTS RPN11 inhibitor hits using a MMP-2 Fluorescence assay.; type: functional
[30] = target: Prothrombin (Bos taurus, UniProt P00735); assay: thrombin protease inhibitors – biochemical, fluorescence polarization, uHTS hits, dose response (AID 602369); type: functional

T3 sequence (P63165 whole entry, the tested form may be a part): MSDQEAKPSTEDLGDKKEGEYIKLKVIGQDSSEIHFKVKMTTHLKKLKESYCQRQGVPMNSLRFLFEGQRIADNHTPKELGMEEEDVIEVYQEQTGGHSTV
Bcl-2-like protein 1, sequence (Q07817 whole entry): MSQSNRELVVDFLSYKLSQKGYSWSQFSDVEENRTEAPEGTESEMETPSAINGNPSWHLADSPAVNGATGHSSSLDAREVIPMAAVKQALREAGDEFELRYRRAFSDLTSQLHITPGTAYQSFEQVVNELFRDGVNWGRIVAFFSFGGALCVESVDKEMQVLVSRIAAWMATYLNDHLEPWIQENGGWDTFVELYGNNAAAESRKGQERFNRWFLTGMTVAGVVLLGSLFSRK
Induced myeloid leukemia cell differentiation protein Mcl-1, sequence (Q07820 whole entry): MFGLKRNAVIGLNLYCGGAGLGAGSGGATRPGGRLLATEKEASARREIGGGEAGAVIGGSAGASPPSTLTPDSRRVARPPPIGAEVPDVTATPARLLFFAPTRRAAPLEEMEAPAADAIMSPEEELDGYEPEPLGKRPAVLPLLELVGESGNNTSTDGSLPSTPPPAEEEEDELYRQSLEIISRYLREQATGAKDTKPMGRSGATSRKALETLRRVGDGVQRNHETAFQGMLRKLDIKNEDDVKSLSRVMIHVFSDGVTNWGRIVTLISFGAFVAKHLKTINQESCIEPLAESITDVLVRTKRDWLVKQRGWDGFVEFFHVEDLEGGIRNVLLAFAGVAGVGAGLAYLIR
Voltage-gated inwardly rectifying potassium channel KCNH2, sequence (Q12809 whole entry): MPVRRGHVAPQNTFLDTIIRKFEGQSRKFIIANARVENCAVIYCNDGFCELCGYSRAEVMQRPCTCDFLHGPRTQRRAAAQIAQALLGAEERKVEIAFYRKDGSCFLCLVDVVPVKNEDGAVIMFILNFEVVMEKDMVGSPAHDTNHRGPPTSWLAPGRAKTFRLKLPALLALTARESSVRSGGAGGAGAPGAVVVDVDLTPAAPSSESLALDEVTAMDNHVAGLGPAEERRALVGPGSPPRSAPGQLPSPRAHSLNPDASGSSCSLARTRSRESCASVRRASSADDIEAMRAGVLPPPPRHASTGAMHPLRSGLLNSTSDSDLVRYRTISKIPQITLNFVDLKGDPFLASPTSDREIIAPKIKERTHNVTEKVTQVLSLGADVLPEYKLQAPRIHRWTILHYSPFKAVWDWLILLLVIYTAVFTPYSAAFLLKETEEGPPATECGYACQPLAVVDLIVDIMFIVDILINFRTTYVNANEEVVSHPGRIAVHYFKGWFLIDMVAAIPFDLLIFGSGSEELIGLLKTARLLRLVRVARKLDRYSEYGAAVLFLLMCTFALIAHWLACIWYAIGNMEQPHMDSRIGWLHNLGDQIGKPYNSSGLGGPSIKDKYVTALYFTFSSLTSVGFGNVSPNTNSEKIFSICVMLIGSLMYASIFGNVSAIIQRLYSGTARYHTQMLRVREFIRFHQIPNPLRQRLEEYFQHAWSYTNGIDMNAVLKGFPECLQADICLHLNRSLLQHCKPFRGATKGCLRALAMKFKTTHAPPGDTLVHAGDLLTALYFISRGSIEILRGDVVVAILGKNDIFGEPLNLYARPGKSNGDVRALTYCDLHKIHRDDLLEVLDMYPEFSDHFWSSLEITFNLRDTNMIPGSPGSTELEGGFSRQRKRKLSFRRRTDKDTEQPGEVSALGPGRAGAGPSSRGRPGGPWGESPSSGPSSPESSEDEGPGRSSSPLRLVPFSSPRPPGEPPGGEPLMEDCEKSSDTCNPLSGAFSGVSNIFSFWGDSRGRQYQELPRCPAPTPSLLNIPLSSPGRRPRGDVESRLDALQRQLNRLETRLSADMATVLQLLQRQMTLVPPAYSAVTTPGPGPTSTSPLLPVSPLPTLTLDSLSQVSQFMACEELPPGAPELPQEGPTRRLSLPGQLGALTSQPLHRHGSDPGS
Beta-adrenergic receptor kinase 1, sequence (P25098 whole entry): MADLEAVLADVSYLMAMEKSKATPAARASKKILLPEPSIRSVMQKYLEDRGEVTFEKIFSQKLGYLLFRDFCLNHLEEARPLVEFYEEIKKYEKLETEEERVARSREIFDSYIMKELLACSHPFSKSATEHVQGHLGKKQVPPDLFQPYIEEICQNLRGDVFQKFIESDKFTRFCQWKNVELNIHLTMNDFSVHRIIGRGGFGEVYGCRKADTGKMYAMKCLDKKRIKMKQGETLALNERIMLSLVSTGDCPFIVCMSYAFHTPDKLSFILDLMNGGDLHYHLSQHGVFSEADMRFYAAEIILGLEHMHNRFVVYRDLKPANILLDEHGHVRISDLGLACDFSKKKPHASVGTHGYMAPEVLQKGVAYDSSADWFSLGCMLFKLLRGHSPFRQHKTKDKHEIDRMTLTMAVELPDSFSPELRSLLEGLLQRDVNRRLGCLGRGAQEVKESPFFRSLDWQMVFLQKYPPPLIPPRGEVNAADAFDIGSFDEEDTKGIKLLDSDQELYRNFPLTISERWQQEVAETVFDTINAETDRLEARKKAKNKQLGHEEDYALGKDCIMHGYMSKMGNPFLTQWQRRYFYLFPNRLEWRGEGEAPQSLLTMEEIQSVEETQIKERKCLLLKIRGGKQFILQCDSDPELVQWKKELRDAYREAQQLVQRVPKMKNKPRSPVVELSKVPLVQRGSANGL
26S proteasome non-ATPase regulatory subunit 14, sequence (O00487 whole entry): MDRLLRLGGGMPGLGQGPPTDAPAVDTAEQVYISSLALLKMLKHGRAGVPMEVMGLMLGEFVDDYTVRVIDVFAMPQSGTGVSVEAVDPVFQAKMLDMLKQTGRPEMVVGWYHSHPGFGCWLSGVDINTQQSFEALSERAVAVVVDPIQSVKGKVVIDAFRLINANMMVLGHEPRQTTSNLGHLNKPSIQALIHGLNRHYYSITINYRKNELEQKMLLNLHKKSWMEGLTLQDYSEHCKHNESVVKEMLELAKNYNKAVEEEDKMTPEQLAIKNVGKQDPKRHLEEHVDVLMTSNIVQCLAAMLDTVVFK
72 kDa type IV collagenase, sequence (P08253 whole entry): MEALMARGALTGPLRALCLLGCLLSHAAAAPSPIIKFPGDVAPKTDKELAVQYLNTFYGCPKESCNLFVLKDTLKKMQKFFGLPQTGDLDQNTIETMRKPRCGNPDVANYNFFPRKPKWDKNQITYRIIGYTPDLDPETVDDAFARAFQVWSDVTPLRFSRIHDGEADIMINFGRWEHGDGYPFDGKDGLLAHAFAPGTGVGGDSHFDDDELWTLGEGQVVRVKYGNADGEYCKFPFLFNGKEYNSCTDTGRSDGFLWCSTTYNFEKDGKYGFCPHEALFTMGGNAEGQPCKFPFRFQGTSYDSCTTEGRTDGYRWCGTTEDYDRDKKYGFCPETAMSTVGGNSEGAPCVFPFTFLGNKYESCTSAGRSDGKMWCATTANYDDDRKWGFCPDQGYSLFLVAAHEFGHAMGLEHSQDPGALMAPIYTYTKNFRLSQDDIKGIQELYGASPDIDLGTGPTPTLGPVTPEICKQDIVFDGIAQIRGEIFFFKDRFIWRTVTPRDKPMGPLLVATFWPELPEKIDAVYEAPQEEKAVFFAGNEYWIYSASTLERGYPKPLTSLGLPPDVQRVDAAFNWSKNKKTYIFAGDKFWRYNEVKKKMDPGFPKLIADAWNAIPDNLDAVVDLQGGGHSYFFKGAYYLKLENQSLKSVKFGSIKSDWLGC
Luciferin 4-monooxygenase, sequence (Q27757 whole entry): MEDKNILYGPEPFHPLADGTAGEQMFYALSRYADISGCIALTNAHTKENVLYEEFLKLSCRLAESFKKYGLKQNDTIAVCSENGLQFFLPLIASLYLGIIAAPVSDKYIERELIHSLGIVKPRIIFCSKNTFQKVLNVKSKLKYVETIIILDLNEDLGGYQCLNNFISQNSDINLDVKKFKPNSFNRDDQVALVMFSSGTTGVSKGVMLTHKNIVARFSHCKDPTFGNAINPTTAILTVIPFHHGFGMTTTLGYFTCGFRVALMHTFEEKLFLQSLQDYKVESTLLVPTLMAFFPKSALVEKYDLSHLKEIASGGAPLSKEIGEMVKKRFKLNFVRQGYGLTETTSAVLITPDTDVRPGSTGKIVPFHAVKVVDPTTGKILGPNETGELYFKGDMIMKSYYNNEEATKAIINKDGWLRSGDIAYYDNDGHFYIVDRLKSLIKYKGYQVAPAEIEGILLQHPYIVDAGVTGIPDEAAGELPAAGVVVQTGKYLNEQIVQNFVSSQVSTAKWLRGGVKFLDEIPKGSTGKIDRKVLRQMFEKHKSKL
Glycogen synthase kinase-3 alpha, sequence (P49840 whole entry): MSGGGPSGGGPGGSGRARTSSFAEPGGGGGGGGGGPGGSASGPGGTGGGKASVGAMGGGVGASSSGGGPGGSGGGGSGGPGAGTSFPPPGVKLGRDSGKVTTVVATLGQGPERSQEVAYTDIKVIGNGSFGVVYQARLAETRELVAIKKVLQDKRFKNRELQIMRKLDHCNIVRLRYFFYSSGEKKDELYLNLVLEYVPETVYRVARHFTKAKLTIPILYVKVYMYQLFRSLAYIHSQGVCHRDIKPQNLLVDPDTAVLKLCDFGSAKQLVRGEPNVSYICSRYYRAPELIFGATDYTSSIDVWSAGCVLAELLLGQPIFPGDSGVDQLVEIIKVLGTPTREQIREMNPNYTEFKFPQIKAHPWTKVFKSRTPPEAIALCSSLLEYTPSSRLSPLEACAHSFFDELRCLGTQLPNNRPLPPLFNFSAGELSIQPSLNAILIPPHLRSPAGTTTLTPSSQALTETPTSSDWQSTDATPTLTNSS
Beta-arrestin-1, sequence (P49407 whole entry): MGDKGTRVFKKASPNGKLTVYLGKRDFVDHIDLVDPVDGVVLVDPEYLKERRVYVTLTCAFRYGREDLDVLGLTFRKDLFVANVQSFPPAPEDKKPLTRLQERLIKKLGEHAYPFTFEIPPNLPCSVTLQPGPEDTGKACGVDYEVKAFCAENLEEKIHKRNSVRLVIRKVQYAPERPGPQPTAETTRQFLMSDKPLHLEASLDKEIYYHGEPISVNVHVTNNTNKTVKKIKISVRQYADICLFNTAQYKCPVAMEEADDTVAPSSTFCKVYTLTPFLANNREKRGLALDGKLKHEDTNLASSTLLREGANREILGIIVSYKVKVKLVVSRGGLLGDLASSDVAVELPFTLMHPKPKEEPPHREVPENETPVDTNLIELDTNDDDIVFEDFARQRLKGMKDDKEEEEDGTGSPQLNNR

Compound: Nc1ncnc2c1nc(Sc1ccc(Cl)cc1)n2[C@@H]1O[C@@H]2COP(=O)(O)O[C@H]2[C@H]1O
- EC50 [1]: 0.0505 µM (active)
- EC50 [2]: 0.0327 µM (active)

Compound: O=c1c2ccccc2sc2ccc(C#CC3(O)CCCCC3)cc12
- AC50 [3]: 29.8 µM (active)
- EC50 [4]: 0.118 µM (active)
- EC50 [5]: < 0.1 µM (active)
- EC50 [6]: 0.14 µM (active)
- EC50 [7]: 0.083 µM (active)
- AC50 [8]: < 0.26 µM (active)
- AC50 [9]: 0.555 µM (active)
- EC50 [10]: < 0.1 µM (active)
- EC50 [11]: < 0.1 µM (active)
- EC50 [12]: < 0.16 µM (active)
- AC50 [13]: > 70 µM (inactive)

Compound: Brc1ccccc1C1Nc2cccc3cccc(c23)N1
- EC50 [14]: > 150 µM (not active)
- EC50 [15]: 9.74 µM (active)
- IC50 [16]: 2.94 µM (inactive)
- EC50 [17]: 14.2 µM (active)

Compound: Nc1nc(NCCCN2CCOCC2)nc(Nc2ccc(F)cc2)c1[N+](=O)[O-]
- AC50 [18]: 0.406 µM (active)
- AC50 [19]: 1.25 µM (active)

Compound: NCCNS(=O)(=O)c1cccc2cnccc12
- AC50 [20]: 12.6 µM (inconclusive)

Compound: COc1ccc(Cl)cc1NC(=O)CCS(=O)(=O)c1ccc(Br)cc1
- IC50 [21]: 32.2 µM (not active)
- IC50 [22]: > 66.6 µM (inactive)
- IC50 [23]: 4.16 µM (active)
- EC50 [24]: 17.4 µM (active)
- EC50 [25]: 0.779 µM (active)
- IC50 [26]: 5.02 µM (active)
- IC50 [27]: 10.9 µM (active)
- IC50 [28]: 11.4 µM (not active)
- IC50 [29]: > 100 µM (inactive)
- IC50 [30]: > 100 µM (inactive)
